Measurements reported in US5998580A, “Photosensitive caged macromolecules” (priority 1995, dated 1999).
Where no end group is shown, it is not given here. The star is where a group is joined. α‑carboxy 2‑nitrobenzyl = O=C(O)C(c1ccccc1[N+](=O)[O-])*

Tests used:
calmodulin = biological target: T1, calmodulin (Homo sapiens, UniProt P0DP23); assay: binding to calmodulin agarose column before and after photolysis
T1 construct: purchased Sigma Chemical Co
Experimental: The 1-CAG-RS-20 was evaluated for its ability to bind a calmodulin agarose column before and after photolysis. This experiment was carried out as follows. 5 mls of calmodulin agarose (Sigma Chemical Co.) was poured into a 1 cm×10 cm glass column and equilibrated with 50 mM Tris pH 7.5, 1 mM CaEGTA, pCa 4.5 (where pCa=-log free […]. 100 nmoles 1CAGRS-20 in 1 ml of the same solution was loaded onto the column and eluted with the same solution while 14×1.5 ml fractions were collected. The elutant was then changed to 50 mM Tris pH 7.5, 1 mM EGTA, pCa 9 and 14×1.5 ml additional fractions were collected. Each fraction was analyzed for peptide by UV absorbance at 272 nm. A second 100 nmole aliquot of 1-CAG-RS-20 was irradiated by the standard photolysis protocol (see below) and loaded onto the calmodulin agarose column after extensive washing and reequilibration in the original pCa 4.5 solution.
(§1) The standard photolysis protocol involves exposure of caged peptide (0.1 to 1 ml; 0.1 mM to 1 mM in 50 mM Tris pH 7.5) in a quartz cuvette (1 cm path length) to the beam of a continuous 75 watt Xenon arc lamp that is filtered through a 300-350 nm band pass filter (UG-11 filter). This standard in vitro photolysis protocol was carried out for 30 minutes at room temperature.

[1] = system: single smooth muscle cells; assay: calcium-dependent enhancement of calcium (inward) current after repetitive depolarization in single smooth muscle cells; format: cell-based; conditions: cell injected with peptide
Experimental: The in vivo effects of 1-CAG-RS-20 on calcium-dependent enhancement of calcium current in smooth muscle were evaluated according to the methods described by McCarron et al. (Nature 357: 74-77). Photolysis of 1-CAG-RS-20 was accomplished by selectively exposing cells to a beam of UV irradiation using a light source fitted with a controllable shutter. In addition, experiments were carried out by recording phase contrast images in the far red portion of the spectrum to monitor the effects of 1-CAG-RS-20 on the contractile responses of the cells to Ca^2+ influx resulting from depolarization. Data was analyzed according to the methods described in Itoh et al. (Nature 338: 164-167, 1989).
Shown in these panels (FIG. 3) are the inward currents resulting from depolarization both before and after the train of depolarizing pulses. The trace labelled #1 was obtained before the train and that after the train is labelled #2 (FIG. 3C).

[2] = system: Smooth muscle myosin light chain kinase (MLCK); assay: inhibition of smooth muscle myosin light chain kinase (MLCK) activity, 32P incorporation into light chain; format: biochemical; conditions: before photolysis; 100 nM calmodulin
Experimental: as §1
Smooth muscle myosin light chain kinase (MLCK) (0.5 μg/ml) was incubated with various concentrations of synthetic caged peptide (e.g., 1-CAG-RS-20 and 9-NPG-RS-20) in the presence of 100 nM calmodulin, 0.1 mM CaCl2, 100 mM KCL, 0.2 mg/ml myosin regulatory light chain, 1 mM MgCl2, and 30 mM Tris-HCL (pH 7.5) at 25° C. for 5 minutes. 1-CAG-RS-20 and 9-NPG-RS-20 were photolyzed using the standard photolysis protocol (see above) and the uncaged peptide was purified away from by-products and caged peptides prior to the enzymatic assay using reverse phase HPLC. The phosphorylation reaction was started by adding 50 μM ^32 P-ATP. The incorporation of ^32 P into the light chain was measured by scintillation counter and the inhibitory effect of the peptide on myosin light chain kinase was determined.

[3] = system: toad stomach smooth muscle cells; assay: rate of shortening of single smooth muscle cells (calcium-mediated contraction); format: cell-based; conditions: 200 μM; after photolysis versus without photolysis (FIG. 5)
Experimental: The in vivo effects of 1-CAG-RS-20 (200 μM) on the rate of shortening of single smooth muscle cells both before and after UV exposure was performed essentially as described in Itoh et al. (Nature 338: 164-67, 1989). Images of the cells were recorded using phase contrast optics and measurements of cell length were carried out as described by Itoh et al., supra. An interactive computer analysis program was used to measure cell length at successive intervals after the onset of cell membrane depolarization and subsequent increase in cytoplasmic Ca^2+ concentration that normally triggers contraction.

1-CAG-RS-20: RS-20 caged analog containing caged tyrosine (α-carboxy 2-nitrobenzyl) at position 5 (ARRKY(α‑carboxy 2‑nitrobenzyl)QKTGHAVRAIGRLSS)
binding to calmodulin agarose column (calmodulin; before photolysis, in the presence of Ca2+ (pCa 4.5), 100 nmoles loaded): does not bind appreciably | binding to calmodulin agarose column (calmodulin; following photolysis, in the presence of Ca2+, binding reversed by EGTA): binds strongly | enhancement of inward current following a train of depolarizing stimuli ([1]; following photolysis (FIG. 3D)): blocked | enhancement of inward current following a train of depolarizing stimuli ([1]; prior to exposure to ultraviolet light (FIG. 3C)): the inward current was enhanced | inhibition of MLCK activity [2]: failed to significantly inhibit MLCK activity | rate of cell shortening [3]: shortened more slowly
